According to ChEMBL document CHEMBL5154842, “Unique Carbazole-Oxadiazole Derivatives as New Potential Antibiotics for Combating Gram-Positive and -Negative Bacteria” (J Med Chem, 2022):
≈ marks a conversion by molar mass, not a printed value. Calls of active or inactive are those of the source. The calls are words filed in the database; no cut-off is given here.

Tests used:
Staphylococcus aureus [1] = experiment: Antibacterial activity against methicillin-resistant Staphylococcus aureus N315 assessed as inhibition of bacterial growth at 0.25 to 64 ug/ml incubated for 24 hrs by Alamar blue assay; assay type: functional, organism-based; conditions: dose 0.25-64 µg/ml
Pseudomonas aeruginosa [2] = experiment: Antibacterial activity against Pseudomonas aeruginosa ATCC 27853 assessed as inhibition of bacterial growth incubated for 24 hrs by CLSI protocol based two fold serial dilution method; assay type: functional
[3] = Hemolytic activity in human RBC assessed as hemolysis at 1 to 32 ug/ml measured after 60 mins by microplate reader assay relative to control; assay type: toxicity, cell-based, Erythrocyte; conditions: red blood cells (erythrocytes), at 1 to 32 µg/mL, dose 1-32 µg/ml, read-out: Activity
Staphylococcus aureus [4] = experiment: Antibacterial activity against Staphylococcus aureus 25923 assessed as inhibition of bacterial growth incubated for 24 hrs by CLSI protocol based two fold serial dilution method; assay type: functional
Cell membrane [5] = experiment: Induction of cell membrane disruption in methicillin-resistant Staphylococcus aureus N315 assessed as increase in nucleotides leakage at 0.5 to 6 ug/ml incubated under agitation condition by UV absorption based analysis; assay type: subcellular; conditions: dose 0.5-6 µg/ml
Staphylococcus aureus [6] = experiment: Antibacterial activity against methicillin-resistant Staphylococcus aureus N315 assessed as change in susceptibility at sub-MIC treated over 9 serial passages measured after 9 days by resistance development assay; assay type: functional, organism-based; conditions: time 9.0 day
Staphylococcus aureus [7] = experiment: Antibacterial activity against Staphylococcus aureus assessed as inhibition of bacterial growth incubated for 24 hrs by CLSI protocol based two fold serial dilution method; assay type: functional
Enterococcus faecalis = experiment: Antibacterial activity against Enterococcus faecalis assessed as inhibition of bacterial growth incubated for 24 hrs by CLSI protocol based two fold serial dilution method; assay type: functional
Staphylococcus aureus [8] = experiment: Antibacterial activity against methicillin-resistant Staphylococcus aureus N315 assessed as inhibition of bacterial growth incubated for 24 hrs by CLSI protocol based two fold serial dilution method; assay type: functional
Acinetobacter baumannii = experiment: Antibacterial activity against Acinetobacter baumannii assessed as inhibition of bacterial growth incubated for 24 hrs by CLSI protocol based two fold serial dilution method; assay type: functional
Escherichia coli [9] = experiment: Antibacterial activity against Escherichia coli assessed as inhibition of bacterial growth incubated for 24 hrs by CLSI protocol based two fold serial dilution method; assay type: functional
Klebsiella pneumoniae = experiment: Antibacterial activity against Klebsiella pneumonia assessed as inhibition of bacterial growth incubated for 24 hrs by CLSI protocol based two fold serial dilution method; assay type: functional
Cell membrane [10] = experiment: Induction of cell membrane disruption in methicillin-resistant Staphylococcus aureus N315 assessed as increase in protein leakage at 0.5 to 6 ug/ml incubated under agitation condition by Bradford assay; conditions: dose 0.5-6 µg/ml
Staphylococcus aureus [11] = experiment: Antibacterial activity against Staphylococcus aureus 29213 assessed as inhibition of bacterial growth incubated for 24 hrs by CLSI protocol based two fold serial dilution method; assay type: functional
Staphylococcus aureus [12] = experiment: Antibacterial activity against methicillin-resistant Staphylococcus aureus N315 assessed as inhibition of bacterial growth at 0.5 to 16 ug/ml measured after 24 hrs by microplate reader assay; assay type: functional, organism-based; conditions: dose 0.5-16 µg/ml
Staphylococcus aureus [13] = experiment: Antibacterial activity against methicillin-resistant Staphylococcus aureus N315 assessed as increase in germicidal effect at 0.5 ug/ml measured after 7 hrs by microplate reader assay; assay type: functional, organism-based; conditions: dose 0.5 µg/ml
Escherichia coli [14] = experiment: Antibacterial activity against Escherichia coli 25922 assessed as inhibition of bacterial growth incubated for 24 hrs by CLSI protocol based two fold serial dilution method; assay type: functional
Pseudomonas aeruginosa [15] = experiment: Antibacterial activity against Pseudomonas aeruginosa assessed as inhibition of bacterial growth incubated for 24 hrs by CLSI protocol based two fold serial dilution method; assay type: functional
Cell membrane [16] = experiment: Induction of inner membrane permeabilization in methicillin-resistant Staphylococcus aureus N315 assessed as increase in PI uptake by measuring increase in fluorescence intensity at 1 to 8 ug/ml incubated for 30 mins by calcein-AM/PI staining based fluorescence microscopic analysis; conditions: dose 1-8 µg/ml, DDE = dose-dependent effect
Staphylococcus aureus [17] = experiment: Antibacterial activity against Staphylococcus aureus ATCC 12600 assessed as inhibition of bacterial growth incubated for 24 hrs by CLSI protocol based two fold serial dilution method; assay type: functional
Staphylococcus aureus [18] = experiment: Antibacterial activity against methicillin-resistant Staphylococcus aureus N315 assessed as increase in bactericidal effect at 2 to 8 ug/ml measured after 24 hrs by microplate reader assay; assay type: functional, organism-based; conditions: dose 2-8 µg/ml
HEK-293T = experiment: Cytotoxicity against human HEK293T cells assessed as cell viability at 0.5 to 64 ug/ml incubated for 24 hrs by MTT assay; assay type: toxicity, cell-based; conditions: dose 0.5-64 µg/ml
[19] = Toxicity against Balb/c mouse assessed as body weight at 100 mg/kg, iv administered every 2 days measured after 1 week; assay type: organism-based; conditions: in vivo, 168 h, time 1 weeks
Staphylococcus aureus [20] = experiment: Antibacterial activity against methicillin-resistant Staphylococcus aureus ATCC 43300 assessed as inhibition of bacterial growth incubated for 24 hrs by CLSI protocol based two fold serial dilution method; assay type: functional
Staphylococcus aureus [21] = experiment: Antibacterial activity against Staphylococcus aureus CMCC (B) 26001 assessed as inhibition of bacterial growth incubated for 24 hrs by CLSI protocol based two fold serial dilution method; assay type: functional
HeLa = experiment: Cytotoxicity against human HeLa cells assessed as cell viability at 0.5 to 64 ug/ml incubated for 24 hrs by MTT assay; assay type: toxicity, cell-based; conditions: dose 0.5-64 µg/ml
Staphylococcus aureus [22] = experiment: Antibacterial activity against Staphylococcus aureus CMCC (B) 26003 assessed as inhibition of bacterial growth incubated for 24 hrs by CLSI protocol based two fold serial dilution method; assay type: functional
Staphylococcus aureus [23] = experiment: Antibacterial activity against Staphylococcus aureus ATCC 6583 assessed as inhibition of bacterial growth incubated for 24 hrs by CLSI protocol based two fold serial dilution method; assay type: functional
Pseudomonas aeruginosa [24] = experiment: Antibacterial activity against Pseudomonas aeruginosa ATCC 27853 assessed as change in susceptibility at sub-MIC treated over 9 serial passages measured after 9 days by resistance development assay; assay type: functional, organism-based; conditions: time 9.0 day

Compound: Sc1nnc(Cn2c3ccccc3c3c(OCC4CC4)cccc32)o1
- Activity (Staphylococcus aureus [1]): Active
- MIC (Pseudomonas aeruginosa [2]): 4 µg/mL (≈ 11.4 µM)
- hemolysis at 1 h [3]: < 3%
- MIC (Staphylococcus aureus [4]): 4 µg/mL (≈ 11.4 µM)
- Activity (Cell membrane [5]): Active
- Activity (Staphylococcus aureus [6]): Active
- MIC (Staphylococcus aureus [7]): 256 µg/mL (≈ 728 µM)
- MIC (Enterococcus faecalis): 2 µg/mL (≈ 5.69 µM)
- MIC (Staphylococcus aureus [8]): 0.5 µg/mL (≈ 1.42 µM)
- MIC (Acinetobacter baumannii): 4 µg/mL (≈ 11.4 µM)
- MIC (Escherichia coli [9]): 2 µg/mL (≈ 5.69 µM)
- MIC (Klebsiella pneumoniae): 4 µg/mL (≈ 11.4 µM)
- Activity (Cell membrane [10]): Active
- MIC (Staphylococcus aureus [11]): 1 µg/mL (≈ 2.85 µM)
- Activity (Staphylococcus aureus [12]): Active
- Activity (Staphylococcus aureus [13]): Active
- MIC (Escherichia coli [14]): 1 µg/mL (≈ 2.85 µM)
- MIC (Pseudomonas aeruginosa [15]): 256 µg/mL (≈ 728 µM)
- Activity (Cell membrane [16]): Dde

Compound: C=CCOc1cccc2c1c1ccccc1n2Cc1nnc(S)o1
- Activity (Staphylococcus aureus [1]): Active
- MIC (Pseudomonas aeruginosa [2]): 4 µg/mL (≈ 11.9 µM)
- MIC (Staphylococcus aureus [17]): 0.25 µg/mL (≈ 0.741 µM)
- hemolysis at 1 h [3]: < 3%
- MIC (Staphylococcus aureus [4]): 8 µg/mL (≈ 23.7 µM)
- Activity (Cell membrane [5]): Active
- Activity (Staphylococcus aureus [18]): Active
- MIC (Staphylococcus aureus [7]): 256 µg/mL (≈ 759 µM)
- MIC (Enterococcus faecalis): 1 µg/mL (≈ 2.96 µM)
- MIC (Staphylococcus aureus [8]): 2 µg/mL (≈ 5.93 µM)
- MIC (Acinetobacter baumannii): 0.25 µg/mL (≈ 0.741 µM)
- Activity (HEK-293T): Non-Toxic
- Activity [19]: Non-Toxic
- MIC (Staphylococcus aureus [20]): 0.25 µg/mL (≈ 0.741 µM)
- MIC (Staphylococcus aureus [21]): 0.25 µg/mL (≈ 0.741 µM)
- MIC (Escherichia coli [9]): 4 µg/mL (≈ 11.9 µM)
- MIC (Klebsiella pneumoniae): 4 µg/mL (≈ 11.9 µM)
- Activity (Cell membrane [10]): Active
- Activity (HeLa): Non-Toxic
- MIC (Staphylococcus aureus [22]): 0.25 µg/mL (≈ 0.741 µM)
- MIC (Staphylococcus aureus [11]): 0.25 µg/mL (≈ 0.741 µM)
- Activity (Staphylococcus aureus [12]): Active
- MIC (Staphylococcus aureus [23]): 0.25 µg/mL (≈ 0.741 µM)
- MIC (Escherichia coli [14]): 0.25 µg/mL (≈ 0.741 µM)
- MIC (Pseudomonas aeruginosa [15]): 128 µg/mL (≈ 379 µM)
- Activity (Cell membrane [16]): Dde

Compound: Sc1nnc(COc2cccc3c2c2ccccc2n3CC2CC2)o1
- MIC (Pseudomonas aeruginosa [2]): 1 µg/mL (≈ 2.85 µM)
- MIC (Staphylococcus aureus [4]): 4 µg/mL (≈ 11.4 µM)
- Activity (Staphylococcus aureus [6]): Active
- MIC (Staphylococcus aureus [7]): 256 µg/mL (≈ 728 µM)
- MIC (Enterococcus faecalis): 8 µg/mL (≈ 22.8 µM)
- Activity (Pseudomonas aeruginosa [24]): Active
- MIC (Staphylococcus aureus [8]): 0.5 µg/mL (≈ 1.42 µM)
- MIC (Acinetobacter baumannii): 16 µg/mL (≈ 45.5 µM)
- MIC (Escherichia coli [9]): 4 µg/mL (≈ 11.4 µM)
- MIC (Klebsiella pneumoniae): 4 µg/mL (≈ 11.4 µM)
- MIC (Staphylococcus aureus [11]): 8 µg/mL (≈ 22.8 µM)
- MIC (Escherichia coli [14]): 1 µg/mL (≈ 2.85 µM)
- MIC (Pseudomonas aeruginosa [15]): 256 µg/mL (≈ 728 µM)

Compound: CCn1c2ccccc2c2c(OCc3nnc(S)o3)cccc21
- MIC (Pseudomonas aeruginosa [2]): 0.5 µg/mL (≈ 1.54 µM)
- MIC (Staphylococcus aureus [4]): 4 µg/mL (≈ 12.3 µM)
- MIC (Staphylococcus aureus [7]): 256 µg/mL (≈ 787 µM)
- MIC (Enterococcus faecalis): 8 µg/mL (≈ 24.6 µM)
- Activity (Pseudomonas aeruginosa [24]): Active
- MIC (Staphylococcus aureus [8]): 2 µg/mL (≈ 6.15 µM)
- MIC (Acinetobacter baumannii): 8 µg/mL (≈ 24.6 µM)
- MIC (Escherichia coli [9]): 8 µg/mL (≈ 24.6 µM)
- MIC (Klebsiella pneumoniae): 4 µg/mL (≈ 12.3 µM)
- MIC (Staphylococcus aureus [11]): 8 µg/mL (≈ 24.6 µM)
- MIC (Escherichia coli [14]): 8 µg/mL (≈ 24.6 µM)
- MIC (Pseudomonas aeruginosa [15]): 256 µg/mL (≈ 787 µM)

Compound: Sc1nnc(COc2cccc3c2c2ccccc2n3CC2CCCCC2)o1
- MIC (Pseudomonas aeruginosa [2]): 1 µg/mL (≈ 2.54 µM)
- MIC (Staphylococcus aureus [4]): 8 µg/mL (≈ 20.3 µM)
- Activity (Staphylococcus aureus [6]): Active
- MIC (Staphylococcus aureus [7]): 256 µg/mL (≈ 651 µM)
- MIC (Enterococcus faecalis): 4 µg/mL (≈ 10.2 µM)
- Activity (Pseudomonas aeruginosa [24]): Active
- MIC (Staphylococcus aureus [8]): 0.5 µg/mL (≈ 1.27 µM)
- MIC (Acinetobacter baumannii): 4 µg/mL (≈ 10.2 µM)
- MIC (Escherichia coli [9]): 4 µg/mL (≈ 10.2 µM)
- MIC (Klebsiella pneumoniae): 2 µg/mL (≈ 5.08 µM)
- MIC (Staphylococcus aureus [11]): 16 µg/mL (≈ 40.7 µM)
- MIC (Escherichia coli [14]): 2 µg/mL (≈ 5.08 µM)
- MIC (Pseudomonas aeruginosa [15]): 256 µg/mL (≈ 651 µM)
